Measured values as given in patent US10233179B2, “Thiazoles and uses thereof” (AbbVie Inc., priority 2013, dated 2019).
pEC50: −log10 of the molar value.

Tests used:
[1] = tested on: RSV (Group A, Long Strain); test: Antiviral cytopathic effect (CPE) protection assay, MTT readout; type: cell-based; settings: human respiratory syncytial virus, 96 h; HEp-2 cells, 0.2 MOI RSV, 4 days incubation, protection from CPE by MTT
Method: HEp-2 cells and RSV (Group A, Long Strain) were obtained from the American Type Culture Collection (Manassas, Va.).
A cytopathic effect (CPE) protection assay was performed to determine the ability of a compound to protect the cells from viral infection and thus the CPE induced by viral infection. 96-Well plates were first seeded with 3×10^3 HEp-2 cells per well in Dulbecco's modified Eagle's medium (DMEM) containing 10% fetal bovine serum (FBS). One day after the cells were seeded, they were preincubated with serial dilutions of compounds prepared in 100 μL assay medium (DMEM mixed with F12 medium at a 1:1 ratio, supplemented with 2% FBS and 1 mM sodium pyruvate) for 1 hour at 37° C. 100 μL of assay medium containing 0.2 multiplicity of infection (MOI) of RSV was then added to each well of cells. In addition to wells containing infected cells incubated with compounds, each plate also contained replicates of two kinds of controls: (1) Virus control contained cells infected with 0.2 MOI of RSV in assay medium, (2) Uninfected cell control contained cells incubated with assay medium only. After 4 days of incubation at 37° C., the viability of cells was assessed using MTT (Thiazolyl blue tetrazolium bromide, Sigma). A stock solution of MTT, at a concentration of 4 mg/mL in phosphate-buffered saline, was added to all wells at 25 μL per well. Plates were further incubated for 4 hours, and each well was then treated with 50 μL of a solution containing 20% sodium dodecyl sulfate (SDS) and 0.02 N HCl. After an overnight incubation, the plates were measured on a BioTek® microtiter plate reader at wavelengths of 570 nm and 650 nm. The MTT detection is based on the fact that viable (uninfected) cells can reduce the tetrazolium salts into colored formazan products, which can then be quantitated by spectrometry. Based on the spectrometric absorbance of each sample, the percent of protection from CPE, which is an indicator of protection from viral infection, can be calculated for each compound and the 50% effective concentrations (EC50) can be calculated using a nonlinear regression curve fitting equation provided by the GraphPad Prism® 4 software.
Compounds were tested to determine both their antiviral and toxicity to determine their therapeutic window. Determination of the EC50 and TD50 of these active compounds were repeated one additional time to confirm the window.

[2] = tested on: HEp-2 cells; test: Cytotoxicity assay (MTT) in parallel with the antiviral assay; type: cell-based
Method: HEp-2 cells and RSV (Group A, Long Strain) were obtained from the American Type Culture Collection (Manassas, Va.). Cytotoxicity of the compounds was determined in experiments done in parallel with the antiviral assays. To do this, 100 μL of assay medium was added to the wells of HEp-2 cells pretreated with 100 μL serially diluted compounds as described above. After 4 days of incubation, the viability of the cells was determined by the MTT assay in the same way as detailed in the “Antiviral Assay” method. Results were expressed as 50% toxicity dose (TD50) values. Compounds were tested to determine both their antiviral and toxicity to determine their therapeutic window. Determination of the EC50 and TD50 of these active compounds were repeated one additional time to confirm the window.

[3] = uninfected HEp-2 cells, 4 days incubation, MTT viability

With C[C@H](c1ccc(F)cc1)N(Cc1cccn1-c1nccs1)Cc1cccn1-c1nccs1 [Example 62, (1R)-1-(4-fluorophenyl)-N,N-bis{[1-(1,3-thiazol-2-yl)-1H-pyrrol-2-yl]methyl}ethanamine] the pEC50 [1] was under 5.52 and the “MTT TD50” value [2, 3] was 3.0 µM.

For c1ccc(CN(Cc2cccn2-c2nccs2)Cc2cccn2-c2nccs2)cc1 [Example 31, 1-phenyl-N,N-bis{[1-(1,3-thiazol-2-yl)-1H-pyrrol-2-yl]methyl}methanamine], the pEC50 [1] was 6.96 and the “MTT TD50” value [2, 3] was 5.4 µM.

C[C@@H](c1ccccc1Cl)N(Cc1cccn1-c1nccs1)Cc1cccn1-c1nccs1 [Example 49, (1S)-1-(2-chlorophenyl)-N,N-bis{[1-(1,3-thiazol-2-yl)-1H-pyrrol-2-yl]methyl}ethanamine] was tested, and the pEC50 [1] was 7.35 and the “MTT TD50” value [2, 3] was 4.3 µM.

In the case of c1cc(CN(Cc2cccn2-c2nccs2)C2CCCCC2)n(-c2nccs2)c1 [Example 52, N,N-bis{[1-(1,3-thiazol-2-yl)-1H-pyrrol-2-yl]methyl}cyclohexanamine], the pEC50 [1] was 7.00 and the “MTT TD50” value [2, 3] was 7.2 µM.

With N#Cc1ccc(CN(Cc2cccn2-c2nccs2)Cc2cccn2-c2nccs2)cc1 [Example 45, 4-[(bis{[1-(1,3-thiazol-2-yl)-1H-pyrrol-2-yl]methyl}amino)methyl]benzonitrile] the pEC50 [1] was 6.02 and the “MTT TD50” value [2, 3] was over 32 µM.

In the case of Clc1cnc(CN(Cc2cccn2-c2nncs2)Cc2cccn2-c2nncs2)c(Cl)c1 [Example 14, 1-(3,5-dichloropyridin-2-yl)-N,N-bis{[1-(1,3,4-thiadiazol-2-yl)-1H-pyrrol-2-yl]methyl}methanamine], the pEC50 [1] was 5.32 and the “MTT TD50” value [2, 3] was 90 µM.

In the case of c1ccc(C2(CCN(Cc3cccn3-c3nccs3)Cc3cccn3-c3nccs3)CC2)nc1 [Example 51, 2-[1-(pyridin-2-yl)cyclopropyl]-N,N-bis{[1-(1,3-thiazol-2-yl)-1H-pyrrol-2-yl]methyl}ethanamine], the pEC50 [1] was 7.35 and the “MTT TD50” value ([2]; human, 4 days) was 6.2 µM.

C[C@H](c1ccc(F)cc1)N(Cc1cccn1-c1nncs1)Cc1cccn1-c1nncs1 [Example 13, (1R)-1-(4-fluorophenyl)-N,N-bis{[1-(1,3,4-thiadiazol-2-yl)-1H-pyrrol-2-yl]methyl}ethanamine] was tested, and the pEC50 [1] was 4.85 and the “MTT TD50” value [2, 3] was 93 µM.

In the case of FC(F)(F)c1ccc(CN(Cc2cccn2-c2nccs2)Cc2cccn2-c2nccs2)cc1 [Example 34, 1-[1-(1,3-thiazol-2-yl)-1H-pyrrol-2-yl]-N-{[1-(1,3-thiazol-2-yl)-1H-pyrrol-2-yl]methyl}-N-[4-(trifluoromethyl)benzyl]methanamine], the pEC50 [1] was 5.47 and the “MTT TD50” value [2, 3] was 34 µM.

For Clc1cccc(Cl)c1CN(Cc1cccn1-c1nncs1)Cc1cccn1-c1nncs1 [Example 55, 1-(2,6-dichlorophenyl)-N,N-bis{[1-(1,3,4-thiadiazol-2-yl)-1H-pyrrol-2-yl]methyl}methanamine], the pEC50 [1] was under 4.49 and the “MTT TD50” value [2, 3] was over 32 µM.

With Cc1cc(N(Cc2cccn2-c2nccs2)Cc2cccn2-c2nccs2)n(-c2ccccc2)n1 [Example 35, 3-methyl-1-phenyl-N,N-bis{[1-(1,3-thiazol-2-yl)-1H-pyrrol-2-yl]methyl}-1H-pyrazol-5-amine] the pEC50 [1] was 7.33 and the “MTT TD50” value [2, 3] was over 32 µM.

COc1ccc(CN(Cc2cccn2-c2nccs2)Cc2cccn2-c2nccs2)c(OC)c1 [Example 30, 1-(2,4-dimethoxyphenyl)-N,N-bis{[1-(1,3-thiazol-2-yl)-1H-pyrrol-2-yl]methyl}methanamine] was tested, and the pEC50 [1] was 7.27 and the “MTT TD50” value [2, 3] was 4.9 µM.

With N#Cc1ccc(CN(Cc2cccn2-c2nncs2)Cc2cccn2-c2nncs2)cc1 [Example 56, 4-[(bis{[1-(1,3,4-thiadiazol-2-yl)-1H-pyrrol-2-yl]methyl}amino)methyl]benzonitrile] the pEC50 [1] was 4.34 and the “MTT TD50” value [2, 3] was over 100 µM.

In the case of c1cc(CN(Cc2cccn2-c2nccs2)CC2C[C@H]3CC[C@@H]2C3)n(-c2nccs2)c1 (stereo partly drawn) [Example 32, 1-[(1R,4S)-bicyclo[2.2.1]hept-2-yl]-N,N-bis{[1-(1,3-thiazol-2-yl)-1H-pyrrol-2-yl]methyl}methanamine], the pEC50 [1] was 6.39 and the “MTT TD50” value [2, 3] was 4.1 µM.

With c1cncc(C2(CN(Cc3cccn3-c3nncs3)Cc3cccn3-c3nncs3)CC2)c1 [Example 26, 1-[1-(pyridin-3-yl)cyclopropyl]-N,N-bis{[1-(1,3,4-thiadiazol-2-yl)-1H-pyrrol-2-yl]methyl}methanamine] the pEC50 [1] was 5.96 and the “MTT TD50” value [2, 3] was over 100 µM.

For c1cc(CN(CCC2(c3ccncc3)CC2)Cc2cccn2-c2nccs2)n(-c2nccs2)c1 [Example 66, 2-[1-(pyridin-4-yl)cyclopropyl]-N,N-bis{[1-(1,3-thiazol-2-yl)-1H-pyrrol-2-yl]methyl}ethanamine], the pEC50 [1] was 6.70 and the “MTT TD50” value [2, 3] was 14 µM.

In the case of Cc1cccc(C)c1-n1ccc(CN(Cc2cccn2-c2nccs2)C(C)c2cnn(-c3cccc(F)c3)c2C)c1 (stereo not shown) [Example 6, N-{[1-(2,6-dimethylphenyl)-1H-pyrrol-3-yl]methyl}-1-[1-(3-fluorophenyl)-5-methyl-1H-pyrazol-4-yl]-N-{[1-(1,3-thiazol-2-yl)-1H-pyrrol-2-yl]methyl}ethanamine], the pEC50 [1] was under 6.24 and the “MTT TD50” value [2, 3] was 0.57 µM.

For Clc1cnc(CN(Cc2cccn2-c2nccs2)Cc2cccn2-c2nccs2)c(Cl)c1 [Example 38, 1-(3,5-dichloropyridin-2-yl)-N,N-bis{[1-(1,3-thiazol-2-yl)-1H-pyrrol-2-yl]methyl}methanamine], the pEC50 [1] was 6.51 and the “MTT TD50” value [2, 3] was 11 µM.

c1cncc(C2(CCN(Cc3cccn3-c3nccs3)Cc3cccn3-c3nccs3)CC2)c1 [Example 60, 2-[1-(pyridin-3-yl)cyclopropyl]-N,N-bis{[1-(1,3-thiazol-2-yl)-1H-pyrrol-2-yl]methyl}ethanamine] was tested, and the pEC50 [1] was 6.07 and the “MTT TD50” value [2, 3] was over 100 µM.

Clc1ccc(CN(Cc2cccn2-c2nccs2)Cc2cccn2-c2nccs2)c(Cl)c1 [Example 29, 1-(2,4-dichlorophenyl)-N,N-bis{[1-(1,3-thiazol-2-yl)-1H-pyrrol-2-yl]methyl}methanamine] was tested, and the pEC50 [1] was 6.49 and the “MTT TD50” value [2, 3] was over 32 µM.

For Cc1c(C(C)N(Cc2cccn2-c2nccs2)Cc2ncc(-c3ccccc3)n2C)cnn1-c1cccc(F)c1 (stereo not shown) [Example 41, 1-[1-(3-fluorophenyl)-5-methyl-1H-pyrazol-4-yl]-N-[(1-methyl-5-phenyl-1H-imidazol-2-yl)methyl]-N-{[1-(1,3-thiazol-2-yl)-1H-pyrrol-2-yl]methyl}ethanamine], the pEC50 [1] was under 5.25 and the “MTT TD50” value [2, 3] was 5.6 µM.

In the case of Cc1c([C@H](C)N(Cc2cccn2-c2nccs2)Cc2cccn2-c2nccs2)cnn1-c1cccc(F)c1 [Example 2, (1S)-1-[1-(3-fluorophenyl)-5-methyl-1H-pyrazol-4-yl]-N,N-bis{[1-(1,3-thiazol-2-yl)-1H-pyrrol-2-yl]methyl}ethanamine], the pEC50 [1] was 7.15 and the “MTT TD50” value [2, 3] was over 32 µM.

For c1cncc(C2(CCN(Cc3cccn3-c3nncs3)Cc3cccn3-c3nncs3)CC2)c1 [Example 24, 2-[1-(pyridin-3-yl)cyclopropyl]-N,N-bis{[1-(1,3,4-thiadiazol-2-yl)-1H-pyrrol-2-yl]methyl}ethanamine], the pEC50 [1] was 5.54 and the “MTT TD50” value [2, 3] was over 100 µM.

c1cncc(C2(CN(Cc3cccn3-c3nccs3)Cc3cccn3-c3nccs3)CC2)c1 [Example 65, 1-[1-(pyridin-3-yl)cyclopropyl]-N,N-bis{[1-(1,3-thiazol-2-yl)-1H-pyrrol-2-yl]methyl}methanamine] was tested, and the pEC50 [1] was 7.05 and the “MTT TD50” value [2, 3] was 25 µM.

Cc1c(C(C)N(Cc2ncc(-c3ccccc3)n2C)Cc2ncc(-c3ccccc3)n2C)cnn1-c1cccc(F)c1 (stereo not shown) [Example 7, 1-[1-(3-fluorophenyl)-5-methyl-1H-pyrazol-4-yl]-N,N-bis[(1-methyl-5-phenyl-1H-imidazol-2-yl)methyl]ethanamine] was tested, and the pEC50 [1] was 6.49 and the “MTT TD50” value [2, 3] was 5.2 µM.

With c1ccc(N(Cc2cccn2-c2nncs2)Cc2cccn2-c2nncs2)cc1 [Example 22, N,N-bis{[1-(1,3,4-thiadiazol-2-yl)-1H-pyrrol-2-yl]methyl}aniline] the pEC50 [1] was 4.55 and the “MTT TD50” value [2, 3] was over 32 µM.
